Experimental data taken from patent US20170058314A1, “NOVEL METHODOLOGY FOR IDENTIFYING ANTI-PERSISTER ACTIVITY AND ANTIMICROBIAL SUSCEPTIBILITY FOR BORRELIA BURGDORFERI AND OTHER BACTERIA” (priority 2014, published 2017).
Counter-ions that a name gives are not always drawn.

Key:
[1] = system: stationary phase B. burgdorferi persisters (strain B31); experiment: NCI compound library rescreen, epifluorescence microscope counting; details: for viability at 20 µM / viability at 50 µM: Borreliella burgdorferi, 168 h; for viability at 20 µM: read-out: Residual viable cells (%) 20 μM (epifluorescence microscope counting); for Residual viable cells (%) 20 μM (epifluorescence microscope counting) / Residual viable cells (%) 50 μM (epifluorescence microscope counting): seven day old stationary phase; for Residual viable cells (%) 20 μM (epifluorescence microscope counting) / Residual viable cells (epifluorescence microscope counting) / Residual viable cells (%) 50 μM (epifluorescence microscope counting): 7 days; for Residual viable cells (epifluorescence microscope counting) / Residual viable cells (%) 50 μM (epifluorescence microscope counting): 50 μM; for Residual viable cells (epifluorescence microscope counting): seven day old stationary phase culture
[2] = system: stationary phase B. burgdorferi persisters (strain B31); experiment: NCI compound library screen, SYBR Green I/PI assay (plate reader); details: for viability at 20 µM / viability at 50 µM: Borreliella burgdorferi, 168 h; for viability at 20 µM: read-out: Residual viable cells (%) 20 μM (SYBR Green I/PI assay); for Residual viable cells (%) 20 μM (SYBR Green I/PI assay): seven day old stationary phase; for Residual viable cells (%) 20 μM (SYBR Green I/PI assay) / Residual viable cells (SYBR Green I/PI assay): 7 days; for Residual viable cells (SYBR Green I/PI assay): 50 μM, seven day old stationary phase culture
[3] = read-out: Residual viable cells (%) 50 μM (epifluorescence microscope counting)
[4] = read-out: Residual viable cells (epifluorescence microscope counting)
[5] = read-out: Residual viable cells (SYBR Green I/PI assay)

Molecule	viability at 20 µM [1]	viability at 50 µM [1, 3]	viability at 50 µM [1, 4]	viability at 20 µM [2]	viability at 50 µM [2, 5]	further results
NC(=O)OCC1=C(COC(N)=O)C(=O)c2c(O)ccc(O)c2C1=O [NSC224124, (5,8-dihydroxy-1,4-dioxo-1,4-dihydronaphthalene-2,3-diyl)dimethanediyl dicarbamate]	77%	31%	31%	54%	32%	
CC[C@@]1(O)C[C@H](O[C@H]2C[C@H](N(C)C)[C@H](O)[C@H](C)O2)c2c(O)c3c(c(O)c2[C@H]1O[C@H]1C[C@H](N(C)C)[C@H](O)[C@H](C)O1)C(=O)c1cccc(O)c1C3=O [NSC136044, Rhodomycin A]						Residual viable cells (%) 20 μM (epifluorescence microscope counting) [1]: 21%; Residual viable cells (epifluorescence microscope counting) [1]: 22%; Residual viable cells (%) 50 μM (epifluorescence microscope counting) [1]: 21%; Residual viable cells (%) 20 μM (SYBR Green I/PI assay) [2]: 5%; Residual viable cells (SYBR Green I/PI assay) [2]: 0%
Cc1cc(O)c2c(c1)C(=O)c1cc(O)cc(O)c1C2=O [NSC408120, Emodin]			31%		18%	
C=CCNc1ncnc2sc(SC)nc12 [NSC343783, N-Allyl-2-(methylthio)[1,3]thiazolo[5,4-d]pyrimidin-7-amine]			20%		67%	
Nogalamycin [NSC70845]						Residual viable cells (%) 20 μM (epifluorescence microscope counting) [1]: 15%; Residual viable cells (epifluorescence microscope counting) [1]: 15%; Residual viable cells (%) 50 μM (epifluorescence microscope counting) [1]: 15%; Residual viable cells (%) 20 μM (SYBR Green I/PI assay) [2]: 3%; Residual viable cells (SYBR Green I/PI assay) [2]: 0%
COCCOC1=C(Cl)C(=O)c2c(O)ccc(O)c2C1=O [NSC659997, Naphthalene-1,4-dione, 2-chloro-5,8-dihydroxy-3-(2-methoxyethoxy)-]	50%	28%	28%	40%	1%	
Cc1c2cc[n+](CCN3CCCCC3)cc2c(C)c2c1[nH]c1ccc(O)cc12 [NSC311153, 9-Hydroxy-2-(2-piperidinylethyl)ellipticinium acetate]			26%		45%	
O=C1c2cccc(Sc3ccccc3)c2C(=O)c2c(Sc3ccccc3)cccc21 [NSC156516, 1,8-Di(phenylthio)anthraquinone]			50%			viability at 50 µM ([2]; read-out: Residual viable cells (SYBR Green I/PI assay), 50 μM, seven day old stationary phase culture, 7 days): 46%
COc1cccc2c1C(=O)c1c(O)c3c(c(O)c1C2=O)C[C@@](O)(C(C)=O)C[C@@H]3OC1CC(N(C)C)C(O)C(C)O1 (some centres unmarked) [NSC258812, Dimethyldaunomycin hydrochloride]	10%	10%	10%	0%	0%	
O/N=C(/c1ccccc1)c1ccc2c3c(cccc13)CC2 [NSC137399, 1-(1,2-Dihydro-5-acenaphthylenyl)-N-hydroxy-1-phenylmethanimine]			41%		51%	
O=C1c2cccc(NCCCNCCO)c2C(=O)c2cccc(NCCCNCCO)c21 [NSC363998, Anthracene-9,10-dione, 1,5-bis[3-[[(2-hydroxyethyl)amino]propyl]amino]-9,10-dihydro-, dihydrochloride]	14%	13%	13%	22%	0%	
Cc1cc(C(=C2C=CC(=N)C=C2)c2ccc(N)cc2)ccc1N [NSC93739, 2-Methyl-4,4′-[(4-imino-2,5-cyclohexadien-1-ylidene)methylene]dianiline hydrochloride]	77%	43%	43%	0%	0%	
Cc1ccc(NCCN(C)C)c2c(=O)c3cc(O)ccc3sc12 [NSC317003, 9H-Thioxanthen-9-one, 1-[[2-(dimethylamino)ethyl]amino]-7-hydroxy-4-methyl-, monohydriodide]			30%		29%	
